Experiments:
[1] = The drug is tested on Enterobacter cancerogenus strain: ATCC35316 for biotransformation. The drug concentrations were measured before and after a 12-h incubation by liquid-chromatography-coupled mass spectrometry (LC–MS); conditions: 2 µM
[2] = bacteroides fragilis, 12 h, 2 µM
Description: The drug is tested on Bacteroides fragilis strain: 3397 (T10) for biotransformation. The drug concentrations were measured before and after a 12-h incubation by liquid-chromatography-coupled mass spectrometry (LC–MS)

[3] = The drug is tested on Bacteroides fragilis strain: HMW610 for biotransformation. The drug concentrations were measured before and after a 12-h incubation by liquid-chromatography-coupled mass spectrometry (LC–MS); conditions: 2 µM
[4] = bacteroides stercoris, 12 h, 2 µM
Description: The drug is tested on Bacteroides stercoris strain: ATCC43183 for biotransformation. The drug concentrations were measured before and after a 12-h incubation by liquid-chromatography-coupled mass spectrometry (LC–MS)

[5] = bacteroides thetaiotaomicron, 12 h, 2 µM
Description: The drug is tested on Bacteroides thetaiotaomicron strain: 3731 for biotransformation. The drug concentrations were measured before and after a 12-h incubation by liquid-chromatography-coupled mass spectrometry (LC–MS)

[6] = The drug is tested on Clostridium scindens strain: ATCC35704 for biotransformation. The drug concentrations were measured before and after a 12-h incubation by liquid-chromatography-coupled mass spectrometry (LC–MS); conditions: 2 µM
[7] = The drug is tested on Anaerococcus hydrogenalis strain: DSM7454 for biotransformation. The drug concentrations were measured before and after a 12-h incubation by liquid-chromatography-coupled mass spectrometry (LC–MS); conditions: 2 µM
[8] = segatella copri, 12 h, 2 µM
Description: The drug is tested on Prevotella copri strain: DSM18205 for biotransformation. The drug concentrations were measured before and after a 12-h incubation by liquid-chromatography-coupled mass spectrometry (LC–MS)

[9] = parabacteroides distasonis, 12 h, 2 µM
Description: The drug is tested on Parabacteroides distasonis strain: ATCC8503 for biotransformation. The drug concentrations were measured before and after a 12-h incubation by liquid-chromatography-coupled mass spectrometry (LC–MS)

[10] = The drug is tested on Bifidobacterium ruminantium strain: fecal isolate for biotransformation. The drug concentrations were measured before and after a 12-h incubation by liquid-chromatography-coupled mass spectrometry (LC–MS); conditions: 2 µM
[11] = The drug is tested on Bacteroides caccae strain: ATCC43185 for biotransformation. The drug concentrations were measured before and after a 12-h incubation by liquid-chromatography-coupled mass spectrometry (LC–MS); conditions: 2 µM
[12] = The drug is tested on Bacteroides dorei strain: DSM17855 for biotransformation. The drug concentrations were measured before and after a 12-h incubation by liquid-chromatography-coupled mass spectrometry (LC–MS); conditions: phocaeicola dorei, 2 µM
[13] = The drug is tested on Bacteroides sp. WH2 strain: WH2 for biotransformation. The drug concentrations were measured before and after a 12-h incubation by liquid-chromatography-coupled mass spectrometry (LC–MS); conditions: bacteroides sp. wh2, 12 h, 2 µM
[14] = The drug is tested on Ruminococcus torques strain: ATCC27756 for biotransformation. The drug concentrations were measured before and after a 12-h incubation by liquid-chromatography-coupled mass spectrometry (LC–MS); format: ADME; set-up: dose 2 uM, timepoint 0 vs 12 hours; conditions: 2 µM
[15] = The drug is tested on Blautia luti strain: DSM14534 for biotransformation. The drug concentrations were measured before and after a 12-h incubation by liquid-chromatography-coupled mass spectrometry (LC–MS); format: ADME; set-up: dose 2 uM, timepoint 0 vs 12 hours; conditions: 2 µM
[16] = bacteroides fragilis, 12 h, 2 µM; remark: listed apart in the source
Description: The drug is tested on Bacteroides fragilis strain: NCTC 9343 for biotransformation. The drug concentrations were measured before and after a 12-h incubation by liquid-chromatography-coupled mass spectrometry (LC–MS)

[17] = The drug is tested on Enterococcus faecalis strain: V583 for biotransformation. The drug concentrations were measured before and after a 12-h incubation by liquid-chromatography-coupled mass spectrometry (LC–MS); conditions: 2 µM
[18] = The drug is tested on Bifidobacterium longum subsp. Infantis strain: CCUG52486 for biotransformation. The drug concentrations were measured before and after a 12-h incubation by liquid-chromatography-coupled mass spectrometry (LC–MS); conditions: 2 µM
[19] = The drug is tested on Eubacterium ventriosum strain: ATCC27560 for biotransformation. The drug concentrations were measured before and after a 12-h incubation by liquid-chromatography-coupled mass spectrometry (LC–MS); format: ADME; set-up: dose 2 uM, timepoint 0 vs 12 hours; conditions: 2 µM
[20] = The drug is tested on Bacteroides fragilis strain: ATCC43859 for biotransformation. The drug concentrations were measured before and after a 12-h incubation by liquid-chromatography-coupled mass spectrometry (LC–MS); conditions: 2 µM

| SMILES | Bacterial Biotransformation [1] | Bacterial Biotransformation [2] | Bacterial Biotransformation [3] | Bacterial Biotransformation [4] | Bacterial Biotransformation [5] | Bacterial Biotransformation [6] | Bacterial Biotransformation [7] | Bacterial Biotransformation [8] | Bacterial Biotransformation [9] | Bacterial Biotransformation [10] | Bacterial Biotransformation [11] | Bacterial Biotransformation [12] | Bacterial Biotransformation [13] | Bacterial Biotransformation [14] | Bacterial Biotransformation [15] | Bacterial Biotransformation [16] | Bacterial Biotransformation [17] | Bacterial Biotransformation [18] | Bacterial Biotransformation [19] | Bacterial Biotransformation [20] |
| --- | --- | --- | --- | --- | --- | --- | --- | --- | --- | --- | --- | --- | --- | --- | --- | --- | --- | --- | --- | --- |
| CC(NC(C)(C)C)C(=O)c1cccc(Cl)c1 (stereo unspecified) [BUPROPION] | Compound NOT metabolized | Compound NOT metabolized | Compound NOT metabolized | Compound NOT metabolized | Compound NOT metabolized | Compound NOT metabolized | Compound NOT metabolized | Compound NOT metabolized | Compound NOT metabolized | Compound metabolized | Compound NOT metabolized | Compound NOT metabolized | Compound NOT metabolized | Compound NOT metabolized | Compound NOT metabolized | Compound NOT metabolized | Compound NOT metabolized |  |  |  |
| Cc1nc2n(c(=O)c1CCN1CCC(c3noc4cc(F)ccc34)CC1)CCCC2O (stereo unspecified) [PALIPERIDONE] | Compound metabolized | Compound metabolized | Compound NOT metabolized | Compound metabolized | Compound metabolized | Compound metabolized | Compound metabolized | Compound metabolized | Compound metabolized | Compound metabolized | Compound metabolized | Compound metabolized | Compound NOT metabolized | Compound metabolized | Compound metabolized | Compound metabolized |  | Compound metabolized |  |  |
| CC(C)C[C@H]1C(=O)N2CCC[C@H]2[C@]2(O)O[C@](NC(=O)[C@@H]3C=C4c5cccc6[nH]c(Br)c(c56)C[C@H]4N(C)C3)(C(C)C)C(=O)N12.CS(=O)(=O)O [BROMOCRIPTINE MESYLATE] | Compound metabolized | Compound metabolized | Compound metabolized | Compound metabolized | Compound metabolized | Compound metabolized | Compound metabolized | Compound metabolized | Compound metabolized | Compound metabolized | Compound metabolized | Compound metabolized | Compound metabolized | Compound metabolized | Compound metabolized | Compound metabolized |  | Compound metabolized | Compound metabolized |  |
| CN/C(=N/CCSCc1nc[nH]c1C)NC#N [CIMETIDINE] | Compound NOT metabolized | Compound metabolized | Compound NOT metabolized | Compound NOT metabolized | Compound metabolized |  | Compound NOT metabolized |  | Compound NOT metabolized | Compound NOT metabolized |  | Compound metabolized | Compound NOT metabolized | Compound NOT metabolized | Compound NOT metabolized | Compound NOT metabolized | Compound NOT metabolized |  | Compound NOT metabolized |  |
| NC12CC3CC(CC(C3)C1)C2 [AMANTADINE] | Compound NOT metabolized |  | Compound NOT metabolized | Compound NOT metabolized | Compound NOT metabolized | Compound NOT metabolized | Compound NOT metabolized | Compound NOT metabolized | Compound NOT metabolized | Compound metabolized | Compound NOT metabolized | Compound NOT metabolized | Compound NOT metabolized | Compound NOT metabolized | Compound NOT metabolized |  | Compound NOT metabolized | Compound NOT metabolized | Compound NOT metabolized |  |
| O=C1CN2Cc3c(ccc(Cl)c3Cl)N=C2N1 [ANAGRELIDE] | Compound NOT metabolized | Compound NOT metabolized |  | Compound NOT metabolized | Compound NOT metabolized | Compound NOT metabolized | Compound NOT metabolized |  | Compound NOT metabolized |  |  | Compound metabolized | Compound NOT metabolized | Compound NOT metabolized | Compound NOT metabolized | Compound NOT metabolized | Compound NOT metabolized |  | Compound NOT metabolized | Compound NOT metabolized |
| Cc1nc2n(c(=O)c1CCN1CCC(c3noc4cc(F)ccc34)CC1)CCCC2 [RISPERIDONE] | Compound metabolized | Compound NOT metabolized | Compound metabolized | Compound NOT metabolized | Compound NOT metabolized | Compound metabolized | Compound metabolized | Compound NOT metabolized | Compound NOT metabolized |  | Compound metabolized |  | Compound NOT metabolized | Compound NOT metabolized | Compound metabolized | Compound NOT metabolized | Compound metabolized | Compound NOT metabolized | Compound NOT metabolized | Compound metabolized |
| CCCc1nc(C(C)(C)O)c(C(=O)OCc2oc(=O)oc2C)n1Cc1ccc(-c2ccccc2-c2nnn[nH]2)cc1 [OLMESARTAN MEDOXOMIL] | Compound metabolized | Compound metabolized | Compound metabolized | Compound metabolized |  | Compound metabolized | Compound metabolized | Compound metabolized | Compound metabolized |  | Compound metabolized | Compound metabolized |  |  |  | Compound metabolized |  | Compound metabolized | Compound metabolized | Compound metabolized |
